Some results are limits rather than exact numbers.

A short description of series [1]: Retention time of the compound by HPLC analysis. It counts as physicochemical.
The species entered for a further series is Homo sapiens. The series is described as follows: Selectivity index, ratio of IC50 for human CYP11B2 to IC50 for human CYP11B1.
For series [2], the target named is T1, Cytochrome P450 11B2, mitochondrial (Homo sapiens, UniProt P19099).
T1 sequence (P19099 whole entry): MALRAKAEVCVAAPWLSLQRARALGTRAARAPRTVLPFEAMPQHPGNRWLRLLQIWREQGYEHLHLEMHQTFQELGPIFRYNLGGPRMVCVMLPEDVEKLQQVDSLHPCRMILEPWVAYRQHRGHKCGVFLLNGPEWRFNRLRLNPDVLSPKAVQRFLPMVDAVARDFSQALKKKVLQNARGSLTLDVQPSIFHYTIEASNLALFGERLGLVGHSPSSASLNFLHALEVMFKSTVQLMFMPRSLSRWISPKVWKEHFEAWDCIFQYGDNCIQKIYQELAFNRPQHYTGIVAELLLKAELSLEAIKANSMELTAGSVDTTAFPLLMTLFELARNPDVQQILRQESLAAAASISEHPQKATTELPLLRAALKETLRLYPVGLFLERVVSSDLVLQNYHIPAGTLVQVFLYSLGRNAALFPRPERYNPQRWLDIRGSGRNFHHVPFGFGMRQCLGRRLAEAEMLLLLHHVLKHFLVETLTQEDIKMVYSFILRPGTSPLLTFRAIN
The series is described as follows: Inhibition of human CYP11B2 expressed in hamster fibroblast using 100 nM [3H]-11-deoxycorticosterone as substrate after 45 mins by HPLC analysis.

The target in series [3] is T2, Cytochrome P450 11B1, mitochondrial (Homo sapiens, UniProt P15538).
T2 sequence (P15538 whole entry): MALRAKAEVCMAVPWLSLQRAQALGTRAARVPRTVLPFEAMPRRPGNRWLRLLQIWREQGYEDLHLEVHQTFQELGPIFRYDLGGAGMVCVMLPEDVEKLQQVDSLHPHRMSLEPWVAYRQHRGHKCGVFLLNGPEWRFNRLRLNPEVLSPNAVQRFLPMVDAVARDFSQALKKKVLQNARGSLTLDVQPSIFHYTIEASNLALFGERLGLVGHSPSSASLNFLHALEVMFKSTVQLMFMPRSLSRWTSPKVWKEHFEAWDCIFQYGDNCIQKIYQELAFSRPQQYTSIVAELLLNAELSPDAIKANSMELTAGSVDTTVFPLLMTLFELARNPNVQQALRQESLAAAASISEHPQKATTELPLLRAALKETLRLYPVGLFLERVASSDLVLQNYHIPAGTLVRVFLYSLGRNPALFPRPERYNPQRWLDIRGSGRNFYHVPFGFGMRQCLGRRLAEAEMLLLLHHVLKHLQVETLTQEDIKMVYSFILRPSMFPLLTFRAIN
The series is described as follows: Inhibition of human CYP11B1 expressed in hamster fibroblast using 100 nM [3H]-11-deoxycorticosterone as substrate after 25 mins by HPLC analysis.

In another series the target is T3, Aromatase (Homo sapiens, UniProt P11511).
T3 sequence (P11511 whole entry): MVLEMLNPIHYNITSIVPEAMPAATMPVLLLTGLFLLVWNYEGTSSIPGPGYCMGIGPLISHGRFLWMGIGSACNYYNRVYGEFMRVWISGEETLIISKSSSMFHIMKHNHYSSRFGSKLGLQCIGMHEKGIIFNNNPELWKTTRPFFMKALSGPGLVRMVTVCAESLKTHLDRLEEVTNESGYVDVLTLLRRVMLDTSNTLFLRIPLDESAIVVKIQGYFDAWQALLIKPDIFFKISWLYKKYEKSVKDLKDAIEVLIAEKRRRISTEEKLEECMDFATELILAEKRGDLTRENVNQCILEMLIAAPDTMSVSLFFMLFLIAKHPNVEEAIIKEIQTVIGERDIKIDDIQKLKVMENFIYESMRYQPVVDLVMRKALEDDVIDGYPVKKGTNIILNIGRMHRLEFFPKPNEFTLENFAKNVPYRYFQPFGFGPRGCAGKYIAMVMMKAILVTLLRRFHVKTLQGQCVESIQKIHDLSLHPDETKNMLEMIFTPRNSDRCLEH
The series is described as follows: Inhibition of human CYP19 expressed in hamster fibroblast using 500 nM [1beta-3H] androstenedione as substrate by HPLC analysis.

The target in series [4] is T4, Cytochrome P450 11B1, mitochondrial (Rattus norvegicus, UniProt P15393).
T4 sequence (P15393 whole entry): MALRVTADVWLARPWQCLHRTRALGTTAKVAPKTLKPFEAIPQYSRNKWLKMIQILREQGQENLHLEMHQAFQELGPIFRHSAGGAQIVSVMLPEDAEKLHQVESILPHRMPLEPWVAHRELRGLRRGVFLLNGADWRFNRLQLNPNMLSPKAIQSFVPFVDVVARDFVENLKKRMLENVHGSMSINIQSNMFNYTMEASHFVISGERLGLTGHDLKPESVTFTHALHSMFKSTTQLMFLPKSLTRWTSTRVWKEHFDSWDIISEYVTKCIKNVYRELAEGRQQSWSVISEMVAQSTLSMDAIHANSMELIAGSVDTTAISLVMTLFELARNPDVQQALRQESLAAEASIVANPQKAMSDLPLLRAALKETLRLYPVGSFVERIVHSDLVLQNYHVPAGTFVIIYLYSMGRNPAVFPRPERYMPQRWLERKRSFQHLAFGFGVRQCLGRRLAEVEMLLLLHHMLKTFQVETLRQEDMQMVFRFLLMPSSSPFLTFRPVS
The series is described as follows: Inhibition of rat CYP11B1 expressed in hamster fibroblast using 500 nM [3H]-11-deoxycorticosterone as substrate after 7 hrs by HPLC analysis.

As usually defined, the IC50 is the concentration at which inhibition is half-maximal. Lower therefore signals higher potency. On to `Fc1ccc(-c2ccncc2)c(OCCc2ccccc2)c1`, for which the Retention_time in series [1] is 9.32 min. Moreover, the Selectivity Index in the series filed under Homo sapiens was 1.2. Further, the IC50 in series [2] stood at 74 nM; in series [3], 60 nM.

For the molecule `Nc1ccc(-c2cccnc2)c(OCc2ccccc2)c1`, the IC50 against Aromatase turned out to be 447 nM; in series [2], 260 nM; in series [3], 540 nM. Further, the Retention_time in series [1] came out at 5.63 min. For the same molecule, in the series listed under Homo sapiens, the Selectivity Index came to 0.5.

In turn, `O=[N+]([O-])c1ccc(-c2ccncc2)cc1OCCc1ccccc1` gave a Retention_time in series [1] of 9.57 min. For the same molecule, the Selectivity Index in the series filed under Homo sapiens came to 0.6. The IC50 amounted to 714 nM in series [2] and 1200 nM in series [3].

In the case of `c1ccc(-c2ccc(Cn3ccnc3)cn2)cc1`, the IC50 is more than 10000 nM in series [4] and more than 5000 nM against Aromatase. In the series listed under Homo sapiens, the Selectivity Index worked out at 13.3.

In series [1], `c1ccc(CCOc2cccnc2-c2ccncc2)cc1` yielded a Retention_time of 7.91 min. Further, in the series listed under Homo sapiens, the Selectivity Index came to 0.9. For the same molecule, the IC50 in series [2] is 2440 nM; in series [3], 2670 nM.

Take `CN(C)C(=O)c1ccc(-c2ccncc2)c(OCCc2ccccc2)c1`: the Retention_time in series [1] turned out to be 7.51 min. Besides, the Selectivity Index in the series filed under Homo sapiens came out at 0.7. Moreover, the IC50 was 816 nM in series [2] and 1150 nM in series [3].

As to `c1ccc(CCOc2cccnc2-c2cccnc2)cc1`, the Retention_time in series [1] came to 7.73 min. Moreover, the Selectivity Index in the series listed under Homo sapiens was 0.9. Moreover, the IC50 in series [2] is 1450 nM; in series [3], 1660 nM.

At Aromatase, `Cc1cncc(Cc2ccc(-c3ccccc3)nc2)c1` came in with an IC50 of more than 5000 nM. Besides, in the series filed under Homo sapiens, the Selectivity Index was 15.1.

Consider `O=[N+]([O-])c1ccc(-c2cccnc2)c(OCc2ccccc2)c1`, for which the IC50 in series [4] stood at 1490 nM; at Aromatase, 146 nM; in series [2] it was 17 nM; in series [3] it was 23 nM. In series [1], this molecule returned a Retention_time of 9.07 min. Further, in the series filed under Homo sapiens, the Selectivity Index is 0.7.

Turning to `CC(C)(C(=O)c1cccnc1)c1cccnc1` [METYRAPONE], the IC50 was 4610 nM in series [4] and more than 5000 nM against Aromatase.

With `O=[N+]([O-])c1ccc(-c2cccnc2)c(OCCc2ccccc2)c1`, the IC50 in series [4] turned out to be 1310 nM; against Aromatase it was 75 nM; in series [2] it was 53 nM; in series [3] it was 13 nM. Besides, in series [1], the Retention_time is reported as 9.13 min. Besides, the Selectivity Index in the series listed under Homo sapiens worked out at 4.1.

Turning to `COc1ccc(-c2ccncc2)c(OCCc2ccccc2)c1`, the Retention_time in series [1] was determined as 9.2 min. Also, the Selectivity Index in the series listed under Homo sapiens stood at 1.5. For the same molecule, the 50% inhibitory concentration (IC50) is 70 nM in series [2] and 46 nM in series [3].

`COc1ccc(-c2cccnc2)c(OCCc2ccccc2)c1` yielded a Retention_time in series [1] of 9.07 min. Further, the Selectivity Index in the series listed under Homo sapiens was 1.3. Moreover, the IC50 in series [2] worked out at 230 nM; in series [3], 183 nM.

`COc1cc2c(cc1-c1cccnc1)CCC(=O)N2`: the Selectivity Index in the series filed under Homo sapiens stood at 0.1. In addition, the IC50 in series [3] was 2490 nM.

On to `O=[N+]([O-])c1ccc(Cc2ccncc2)c(OCCc2ccccc2)c1`, for which the IC50 was 2850 nM in series [4], 157 nM against Aromatase, 16 nM in series [2] and 6 nM in series [3]. The molecule also displayed a Retention_time in series [1] of 9.55 min. In addition, in the series filed under Homo sapiens, the Selectivity Index is 2.7.

In turn, `O=[N+]([O-])c1ccc(-c2cccnc2)cc1OCCc1ccccc1` registered a Retention_time in series [1] of 9.8 min. Further, the Selectivity Index in the series listed under Homo sapiens turned out to be 0.9. Besides, the IC50 in series [2] worked out at 447 nM; in series [3] it was 508 nM.

On to `O=C1CCc2cc(-c3cccnc3)c(OCc3ccccc3)cc2N1`, for which, in series [4], the IC50 came out at 1500 nM. Besides, the Selectivity Index in the series listed under Homo sapiens is 0.5.

Molecule `FC(F)(F)c1ccc(-c2cccnc2)c(OCCc2ccccc2)c1` gave a Retention_time in series [1] of 10.3 min. Also, the Selectivity Index in the series filed under Homo sapiens is 1.2. Also, the IC50 in series [2] was found to be 945 nM; in series [3], 812 nM.

`CC(=O)Nc1ccc(-c2cccnc2)c(OCc2ccccc2)c1` registered a Retention_time in series [1] of 7.25 min. For the same molecule, the Selectivity Index in the series listed under Homo sapiens was determined as 2.3. Moreover, the IC50 in series [2] stood at 643 nM; in series [3] it was 279 nM.

Regarding `O=C(Nc1ccc(-c2cccnc2)c(OCc2ccccc2)c1)c1ccc(F)cc1`, the Retention_time in series [1] was 8.67 min. Besides, in the series filed under Homo sapiens, the Selectivity Index amounted to 0.6. Also, the IC50 worked out at 756 nM in series [2] and 1210 nM in series [3].

With `O=[N+]([O-])c1ccc(-c2cccnc2)c(OCCCc2ccccc2)c1`, the IC50 in series [4] was determined as 2080 nM; against Aromatase, 137 nM; in series [2], 15 nM; in series [3], 6 nM. Moreover, the Retention_time in series [1] came out at 9.28 min. Further, the Selectivity Index in the series listed under Homo sapiens was determined as 2.5.

In the case of `FC(F)(F)c1ccc(-c2ccncc2)c(OCCc2ccccc2)c1`, the IC50 on Aromatase was determined as 2090 nM; in series [2] it was 24 nM; in series [3] it was 26 nM. In series [1], this molecule yielded a Retention_time of 10.13 min. Further, the Selectivity Index in the series filed under Homo sapiens was found to be 0.9.

Consider `O=[N+]([O-])c1ccc(-c2ccncc2)c(OCc2ccccc2)c1`, for which the IC50 turned out to be 648 nM in series [4], 2420 nM against Aromatase, 87 nM in series [2] and 50 nM in series [3]. The same molecule came in with a Retention_time in series [1] of 9.02 min. The Selectivity Index in the series listed under Homo sapiens came out at 1.7.

For `O=[N+]([O-])c1ccc(-c2ccncc2)c(OCCc2ccccc2)c1`, the IC50 was determined as 163 nM in series [4], 1890 nM against Aromatase, 7 nM in series [2] and 2 nM in series [3]. Besides, the Retention_time in series [1] came out at 9.21 min. For the same molecule, the Selectivity Index in the series listed under Homo sapiens is 3.5.

With `N#Cc1ccc(-c2cccnc2)c(OCCc2ccccc2)c1`, the IC50 in series [4] is 543 nM; against Aromatase, 165 nM; in series [2], 63 nM; in series [3], 38 nM. Besides, in series [1], the Retention_time is listed as 8.85 min. Further, in the series listed under Homo sapiens, the Selectivity Index came out at 1.6.

For `CN(C)C(=O)c1ccc(-c2cccnc2)c(OCCc2ccccc2)c1`, the Retention_time in series [1] is listed as 7.56 min. Moreover, in the series filed under Homo sapiens, the Selectivity Index was determined as 0.5. Moreover, the IC50 came out at 299 nM in series [2] and 594 nM in series [3].

Molecule `Fc1ccc(-c2cccnc2)c(OCCc2ccccc2)c1` gave a Retention_time in series [1] of 9.57 min. Moreover, the Selectivity Index in the series listed under Homo sapiens was 1.6. Moreover, the results for the IC50 in series [2] and in series [3] were 84 nM and 51 nM, respectively.

`O=[N+]([O-])c1ccc(Cc2cccnc2)c(OCCc2ccccc2)c1`: the IC50 in series [4] was 706 nM; on Aromatase, 128 nM; in series [2], 246 nM; in series [3], 182 nM. This molecule came in with a Retention_time in series [1] of 9.7 min. In addition, the Selectivity Index in the series filed under Homo sapiens amounted to 1.3.

Source of the values: ChEMBL document CHEMBL3421536, “Identification of 4-(4-nitro-2-phenethoxyphenyl)pyridine as a promising new lead for discovering inhibitors of both human and rat 11β-Hydroxylase” (Eur J Med Chem, 2015).
